Test results reported in patent publication US7807669B2, “Biaromatic compounds which activate PPARγ type receptors and cosmetic/pharmaceutical compositions comprised thereof” (Galderma Research & Development, priority 2002, dated 2010).

Experiments:
Assay type in all cases: cell-based
PPARγ = biological target: T1, PPARγ (Homo sapiens, UniProt P37231); assay: Crossed-curve PPAR transactivation assay (PPARγ); settings: HeLN cells stably transfected with ERE-βGlob-Luc-SV-Neo and Gal-hPPARγ; crossed curves against reference agonist, Schild regression; n.a. means not active; read-out: PPAR gamma Kd app
T1 construct: The reporter is ERE-βGlob-Luc-SV-Neo
T1 sequence (P37231 238-505 limits assumed): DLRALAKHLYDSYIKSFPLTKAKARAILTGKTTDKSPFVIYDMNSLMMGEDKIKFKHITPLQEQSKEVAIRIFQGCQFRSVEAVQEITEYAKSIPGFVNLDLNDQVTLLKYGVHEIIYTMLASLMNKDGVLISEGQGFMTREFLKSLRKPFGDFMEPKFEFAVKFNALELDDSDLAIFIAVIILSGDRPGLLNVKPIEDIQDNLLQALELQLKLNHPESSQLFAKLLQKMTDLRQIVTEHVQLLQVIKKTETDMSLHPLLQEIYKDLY
Procedure: (§1) Activation of the receptors by an agonist (activator) in HeLN cells leads to the expression of a reporter gene, luciferase, which, in the presence of a substrate, generates light. The modulation of the receptors is measured by quantifying the luminescence produced after incubation of the cells in the presence of a reference agonist. The ligands will displace the agonist from its site. The measurement of the activity is performed by quantifying the light produced. This measurement makes it possible to determine the modulatory activity of the compounds according to the invention by determining the constant that is the affinity of the molecule for the receptor. Since this value can fluctuate depending on the basal activity and the expression of the receptor, it is referred to as Kd apparent (KdApp in nM).
(§2) To determine this constant, “crossed curves” for the test product, against a reference agonist, are prepared using a 96-well plate: 10 concentrations of the test product plus a concentration 0 are arranged in a line, and 7 concentrations of the agonist plus a concentration 0 are arranged in a column. This is 88 measurement points for 1 product and 1 receptor. The remaining 8 wells are used for repeatability controls.
(§3) Measurements are also taken for total agonist controls with the same products.
(§4) The HeLN cell lines used are stable transfectants containing the plasmids ERE-βGlob-Luc-SV-Neo (reporter gene) and PPAR (α, δ, γ) Gal-hPPAR. These cells are seeded in 96-well plates at a rate of 10 000 cells per well in 100 μl of DMEM medium without phenol red and supplemented with 10% of defatted calf serum. The plates are then incubated for 16 hours at 37° C. and 7% CO2.
(§5) The various dilutions of the test products and of the reference ligand are added at a rate of 5 μl per well. The plates are then incubated for 18 hours at 37° C. and 7% CO2. The culture medium is removed by turning over and 100 μl of a 1:1 PBS/luciferin mixture are added to each well. After 5 minutes, the plates are read using the luminescence reader.

PPARδ = biological target: T2, PPARδ (Homo sapiens, UniProt Q03181); assay: Crossed-curve PPAR transactivation assay (PPARδ); settings: HeLN cells stably transfected with ERE-βGlob-Luc-SV-Neo and Gal-hPPARδ; crossed curves against reference agonist, Schild regression; n.a. means not active; read-out: PPAR delta Kd app
T2 construct: The reporter is ERE-βGlob-Luc-SV-Neo
T2 sequence (Q03181 211-441 limits assumed): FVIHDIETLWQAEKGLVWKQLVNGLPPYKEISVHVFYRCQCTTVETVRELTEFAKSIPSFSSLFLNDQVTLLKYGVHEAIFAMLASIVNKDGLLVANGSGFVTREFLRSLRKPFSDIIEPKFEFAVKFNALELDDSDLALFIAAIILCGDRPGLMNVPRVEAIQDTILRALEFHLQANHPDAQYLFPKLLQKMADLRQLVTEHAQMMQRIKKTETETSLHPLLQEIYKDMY
Procedure: as §1
To determine this constant, “crossed curves” for the test product, against a reference agonist, are prepared using a 96-well plate: 10 concentrations of the test product plus a concentration 0 are arranged in a line, and 7 concentrations of the agonist plus a concentration 0 are arranged in a column. This is 88 measurement points for 1 product and 1 receptor. […]
The various dilutions of the test products and of the reference ligand are added at a rate of 5 μl per well. […] After 5 minutes, the plates are read using the luminescence reader.

PPARα = biological target: T3, PPARα (Homo sapiens, UniProt Q07869); assay: Crossed-curve PPAR transactivation assay (PPARα); settings: HeLN cells stably transfected with ERE-βGlob-Luc-SV-Neo and Gal-hPPARα; crossed curves against reference agonist, Schild regression; n.a. means not active; read-out: PPAR alpha Kd app
T3 construct: The reporter is ERE-βGlob-Luc-SV-Neo
T3 sequence (Q07869 239-468 limits assumed): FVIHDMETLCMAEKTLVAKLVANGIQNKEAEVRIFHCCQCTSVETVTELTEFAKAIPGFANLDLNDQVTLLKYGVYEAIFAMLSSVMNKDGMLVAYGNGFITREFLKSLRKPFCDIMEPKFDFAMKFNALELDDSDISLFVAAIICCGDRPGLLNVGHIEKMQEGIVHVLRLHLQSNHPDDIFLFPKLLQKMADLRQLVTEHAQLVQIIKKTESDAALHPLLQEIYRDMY
Procedure: as §1, §2, §3, §4, §5

Row | Kd (PPARγ) | Kd (PPARδ) | Kd (PPARα) | SMILES
1 | 30 nM | – | – | CCCCCCCNC(=O)N(C)c1cccc(-c2ccc(C[C@H](Nc3ccccc3C(=O)c3ccccc3)c3nnc(CCC)o3)cc2)c1 [Example 3, (S)-1-{4′-[2-(2-benzoylphenylamino)-2-(5-propyl[1,3,4]oxadiazol-2-yl)ethyl]biphenyl-3-yl}-3-heptyl-1-methylurea]
2 | 4 nM | – | – | CN(C(=O)Nc1ccc2ccccc2c1)c1cccc(-c2ccc(C[C@H](Nc3ccccc3C(=O)c3ccccc3)C(=O)O)cc2)c1 [Example 6, (S)-2-(2-benzoylphenylamino)-3-[3′-(1-methyl-3-naphthalen-2-ylureido)biphenyl-4-yl]propionic acid]
3 | 30 nM | 500 nM | 2000 nM | CCCCCCCNC(=O)N(C)c1cccc(-c2ccc(C[C@H](Nc3ccccc3C(=O)c3ccccc3)C(=O)NCCCCC)cc2)c1 [Example 8, (S)-2-(2-benzoylphenylamino)-3-[3′-(3-heptyl-1-methylureido)biphenyl-4-yl]-N-pentylpropionamide]
4 | 30 nM | – | 2000 nM | CCCCCCCNC(=O)N(C)c1cccc(-c2ccc(C[C@H](Nc3ccccc3C(=O)c3ccccc3)C(=O)N3CCC(C)CC3)cc2)c1 [Example 9, (S)-1-{4′-[2-(2-benzoylphenylamino)-3-(4-methylpiperid-1-yl)-3-oxopropyl]biphenyl-3-yl}-3-heptyl-1-methylurea]
5 | 60 nM | – | 2000 nM | CCCCCCCNC(=O)N(C)c1cccc(-c2ccc(C[C@H](Nc3ccccc3C(=O)c3ccccc3)C(=O)NCCNC(C)=O)cc2)c1 [Example 10, (S)—N-(2-acetylaminoethyl)-2-(2-benzoylphenylamino)-3-[3′-(3-heptyl-1-methylureido)biphenyl-4-yl]propionamide]
6 | 8 nM | – | – | CCCCCCCNC(=O)N(C)c1cccc(-c2ccc(C[C@H](Nc3ccccc3C(=O)c3ccccc3)C(=O)N(Cc3ccccc3)Cc3ccccc3)cc2)c1 [Example 13, (S)-2-(2-benzoylphenylamino)-N,N-dibenzyl-3-[3′-(3-heptyl-1-methylureido)biphenyl-4-yl]propionamide]
7 | 30 nM | – | – | CCCCCCCNC(=O)N(C)c1cccc(-c2ccc(C[C@H](Nc3ccccc3C(=O)c3ccccc3)C(=O)N3CCN(C)CC3)cc2)c1 [Example 16, (S)-1-{4′-[2-(2-benzoylphenylamino)-3-(4-methylpiperazin-1-yl)-3-oxopropyl]biphenyl-3-yl}-3-heptyl-1-methylurea]
8 | 60 nM | – | – | CCCCCCCNC(=O)N(C)c1cccc(-c2ccc(C[C@H](Nc3ccccc3C(=O)c3ccccc3)C(=O)NCc3ccccn3)cc2)c1 [Example 18, (S)-2-(2-benzoylphenylamino)-3-[3′-(3-heptyl-1-methylureido)biphenyl-4-yl]-N-pyridin-2-ylmethylpropionamide]
9 | 30 nM | – | – | CCCCCCCNC(=O)N(C)c1cccc(-c2ccc(C[C@H](Nc3ccccc3C(=O)c3ccccc3)C(=O)N(C)Cc3ccccc3)cc2)c1 [Example 20, (S)-2-(2-benzoylphenylamino)-N-benzyl-3-[3′-(3-heptyl-1-methylureido)biphenyl-4-yl]-N-methylpropionamide]
10 | 60 nM | – | – | CCCCCCCNC(=O)N(C)c1cccc(-c2ccc(C[C@H](Nc3ccccc3C(=O)c3ccccc3)C(=O)NCCN(C)C)cc2)c1 [Example 26, (S)-2-(2-benzoylphenylamino)-N-(2-dimethylaminoethyl)-3-[3′-(3-heptyl-1-methylureido)biphenyl-4-yl]propionamide]
11 | 15 nM | – | 4000 nM | CCCCCCCNC(=O)N(C)c1cccc(-c2ccc(C[C@H](Nc3ccccc3C(=O)c3ccccc3)C(=O)N(C)CCc3ccccc3)cc2)c1 [Example 27, (S)-2-(2-benzoylphenylamino)-3-[3′-(3-heptyl-1-methylureido)biphenyl-4-yl]-N-methyl-N-phenethylpropionamide]
12 | 500 nM | – | 2000 nM | CN(Cc1cccc(-c2ccc(C[C@H](Nc3ccccc3C(=O)c3ccccc3)C(=O)O)cc2)c1)C(=O)c1ccccc1 [Example 29, (S)-3-{3′-[(benzoylmethylamino)methyl]biphenyl-4-yl}-2-(2-benzoylphenylamino)propionic acid]
13 | 15 nM | – | – | CC(=CC(=O)c1ccccc1)N[C@@H](Cc1ccc(-c2cccc(CN(C)C(=O)c3ccccc3)c2)cc1)C(=O)O [Example 31, (S)-3-{3′-[(benzoylmethylamino)methyl]biphenyl-4-yl}-2-(1-methyl-3-oxo-3-phenylpropenylamino)propionic acid]
14 | 30 nM | – | – | CCCCCCCNC(=O)N(C)c1cccc(-c2ccc(C[C@H](Nc3ccccc3C(=O)c3ccccc3)C(=O)OCCCC)cc2)c1 [Example 39, butyl (S)-2-(2-benzoylphenylamino)-3-[3′-(3-heptyl-1-methylureido)biphenyl-4-yl]propionate]
